{"source": "patent US20040096436A1", "about": "“Methods for inhibiting protein kinases in cancer cells” (priority 2002, published 2004)", "key": {"CLL cells": {"tested_on": "CLL cells", "experiment": "α-tubulin polymerization assay in CLL cells", "assay_type": "cell-based, human", "details": "paclitaxel", "protocol": "The Institutional Review Board of the University of California, San Diego approved this study, and all patients gave informed written consent to participation. Subjects had CLL according to National Cancer Institute (NCI) criteria of any Rai stage. None of the patients were in active chemotherapeutic treatments. Flow cytometric analysis determined that all specimens contained more than 90% CD5+ CD19+ B cells.\nPeripheral blood from CLL patients or normal donors was layered on top of Ficoll-Paque Plus (Pharmacia, NJ) and centrifuged at 1200×g for twenty minutes. The enriched peripheral blood mononuclear cells (PBL) were washed several times with Ca++, Mg++-free HBSS.\n(§1) All primary cells were cultured in RPMI 1640 medium with 20% fetal bovine serum (regular medium) at a density of 2-5×10^6 cell/ml. In some cases, the PBL were stimulated for 24 hours with 1 μg/ml anti-CD3 and anti-CD28 antibodies (Alexis, San Diego, Calif.) prior to immunoblot analysis.\n(§2) α-tubulin Polymerization Assay.\nFor each data point, 2×10^6 of cells were incubated in 2ml of regular medium containing drugs for various periods of time. The cells were then washed twice at room temperature, and resuspended in 50 μl of α-tubulin extraction buffer (1 mM MgCl2, 2 m MEGTA, 0.5% NP-40, 20 mM Tris-HCl, pH=6.8) supplemented with 2 mM phenylmethysulfonyl fluoride, and a protease inhibitor cocktail (Sigma). […]"}, "activated PBL": {"tested_on": "activated PBL", "experiment": "α-tubulin polymerization assay in PBL activated with anti-CD3 and anti-CD28 antibodies", "assay_type": "cell-based, human", "details": "PBL activated 24 hrs with anti-CD3 and anti-CD28, paclitaxel for one hour", "protocol": "as §1, §2\nAfter a brief but vigorous vortex, the lysates were incubated at room temperature for 5 minutes, and then centrifuged at 16,000×g for 5 minutes to separate the soluble from polymerized α-tubulin. The supernatant and pellet fractions were resolved on 10-20% pre-cast tris-glycine gels (Novex, San Diego, Calif.) and then subjected to immune blotting with a specific anti-α-tubulin antibody.\nThe cytosolic (S) monomeric and particulate-bound (P) polymerized forms of α-tubulin were separated by centrifugation from drug-treated cells and assayed by immunoblotting."}}}
{"smiles": "CC(=O)O[C@H]1C(=O)[C@@]2(C)[C@H]([C@H](OC(=O)c3ccccc3)[C@]3(O)C[C@H](OC(=O)[C@H](O)[C@@H](NC(=O)c4ccccc4)c4ccccc4)C(C)=C1C3(C)C)[C@]1(OC(C)=O)CO[C@@H]1C[C@@H]2O", "note": "[paclitaxel]", "values": [{"measurement": "α-tubulin relocalization to the particulate fraction after treatment", "setting": "CLL cells", "value": "nearly complete relocalization of α-tubulin to the particulate fraction"}, {"measurement": "α-tubulin in the particulate fraction after treatment", "setting": "activated PBL", "value": "shift of α-tubulin to the particulate-bound fraction"}]}
